Experimental data taken from publication PMC12510138, “Asymmetric Synthesis and Biological Evaluation of 1,3‐ and 1,4‐Disubstituted Isoquinoline‐Containing Lipoxin A4 Analogues” (Chemistry (Weinheim an Der Bergstrasse, Germany), 2025).

Tests used:
[1] = biological target: T1, ALX/FPR2 (Homo sapiens, UniProt P25090); assay: intracellular Ca2+ flux (Fluo-4) in stably double transfected FPR2+/Gαq+ HEK-293 cells; wild-type HEK-293 cells as negative control; partial agonist; type: cell-based
T1 sequence (P25090 1-351): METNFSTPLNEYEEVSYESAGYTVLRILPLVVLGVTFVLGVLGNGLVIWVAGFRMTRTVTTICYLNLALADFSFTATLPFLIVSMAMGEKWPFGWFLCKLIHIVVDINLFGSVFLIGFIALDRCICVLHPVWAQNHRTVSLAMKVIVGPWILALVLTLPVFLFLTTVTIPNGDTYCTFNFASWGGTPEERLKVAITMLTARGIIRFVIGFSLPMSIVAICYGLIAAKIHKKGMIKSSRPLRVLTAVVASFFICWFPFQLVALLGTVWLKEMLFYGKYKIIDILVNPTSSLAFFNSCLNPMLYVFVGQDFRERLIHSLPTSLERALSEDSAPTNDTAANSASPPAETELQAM

[2] = biological target: T1, ALX/FPR2; assay: intracellular Ca2+ flux (Fluo-4) in stably double transfected FPR2+/Gαq+ HEK-293 cells; wild-type HEK-293 cells as negative control; full endogenous agonist; type: cell-based

intracellular Ca2+ flux (Fluo-4) in stably double transfected FPR2+/Gαq+ HEK-293 [1] [nM]	intracellular Ca2+ flux (Fluo-4) in stably double transfected FPR2+/Gαq+ HEK-293 [2] [nM]	Structure (SMILES)
100	–	CCCCC[C@@H](O)c1nc(/C=C/[C@@H](O)[C@@H](O)CCCC(=O)OC)cc2ccccc12 [(1R)-8]
–	10	CCCCC[C@H](O)/C=C/C=C\C=C\C=C\[C@@H](O)[C@@H](O)CCCC(=O)O [compound 1, LXA4]
